Active and inactive are the calls of the source.
What was measured:
[1] = target: Cellular tumor antigen p53 (Homo sapiens) (UniProt P04637); test: Activation of p53 in human MDA-MB-231 cells assessed as upregulation of […]/WAF1 mRNA expression at 1 uM after 12 hrs by RT-PCR analysis; format: cell-based
MDA-MB-231 [2] = test: Cytotoxicity against human MDA-MB-231 cells assessed as cell viability after 5 days by MTT assay; format: functional, cell-based; conditions: MDA-MB-231, 120 h
[3] = target: Cellular tumor antigen p53 (Homo sapiens) (UniProt P04637); test: Activation of p53 in human MCF-7 TR1 cells assessed as upregulation of […]/WAF1 gene expression at 0.1 uM after 48 hrs by Western blot analysis; format: cell-based
[4] = target: Cellular tumor antigen p53 (Homo sapiens) (UniProt P04637); test: Activation of p53 in human MCF-7 TR1 cells assessed as upregulation of […]/WAF1 gene expression at 1 uM after 48 hrs by Western blot analysis; format: cell-based
MCF-7 TR1 [5] = test: Cytotoxicity against human MCF-7 TR1 cells assessed as reduction of colony formation at 1 uM after 14 days by MTT staining-based anchorage-independant soft agar assay; format: functional, cell-based
[6] = target: Cellular tumor antigen p53 (Homo sapiens) (UniProt P04637); test: Activation of p53 in human MDA-MB-231 cells assessed as upregulation of […]/WAF1 expression after 48 hrs by Western blot analysis; format: cell-based
MCF7 [7] = test: Induction of apoptosis in human MCF7 cells assessed as PARP proteolysis at 1 uM after 48 hrs by Western blot analysis; format: functional, cell-based
MCF7 [8] = test: Upregulation of p53 mRNA expression in human MCF7 cells at 0.1 to 1 uM after 12 hrs by RT-PCR analysis; format: functional, cell-based
[9] = Upregulation of p53 expression in human MCF-7 TR1 cells at 0.1 uM after 48 hrs by Western blot analysis; format: functional, cell-based
[10] = Induction of apoptosis in human MCF10A cells assessed as PARP proteolysis at 1 uM after 48 hrs by Western blot analysis; format: cell-based; conditions: mcf-10a
HepG2 = test: Cytotoxicity against human HepG2 cells assessed as growth inhibition by MTT assay; format: functional, cell-based
[11] = target: Cellular tumor antigen p53 (Homo sapiens) (UniProt P04637); test: Activation of p53 in human MDA-MB-231 cells assessed as upregulation of […]/WAF1 mRNA expression at 0.1 uM after 12 hrs by RT-PCR analysis; format: cell-based
HeLa = test: Cytotoxicity against human HeLa cells assessed as growth inhibition by MTT assay; format: functional, cell-based
MDA-MB-231 [12] = test: Upregulation of p53 mRNA expression in human MDA-MB-231 cells at 0.1 to 1 uM after 12 hrs by RT-PCR analysis; format: functional, cell-based
[13] = target: Cellular tumor antigen p53 (Homo sapiens) (UniProt P04637); test: Activation of p53 in human MCF7 cells assessed as upregulation of […]/WAF1 gene expression at 1 uM by dual luciferase reporter gene assay in presence of p53 siRNA; format: cell-based
MDA-MB-231 [14] = test: Cytotoxicity against human MDA-MB-231 cells assessed as reduction of colony formation at 0.1 uM after 14 days by MTT staining-based anchorage-independant soft agar assay; format: functional, cell-based
[15] = target: T1, DNA topoisomerase 1 (Homo sapiens) (UniProt P11387); test: Inhibition of recombinant human topoisomerase 1 assessed as relaxation of supercoiled pHOT1 at 50 uM after 30 mins by agarose gel electrophoresis
T1 sequence (whole entry): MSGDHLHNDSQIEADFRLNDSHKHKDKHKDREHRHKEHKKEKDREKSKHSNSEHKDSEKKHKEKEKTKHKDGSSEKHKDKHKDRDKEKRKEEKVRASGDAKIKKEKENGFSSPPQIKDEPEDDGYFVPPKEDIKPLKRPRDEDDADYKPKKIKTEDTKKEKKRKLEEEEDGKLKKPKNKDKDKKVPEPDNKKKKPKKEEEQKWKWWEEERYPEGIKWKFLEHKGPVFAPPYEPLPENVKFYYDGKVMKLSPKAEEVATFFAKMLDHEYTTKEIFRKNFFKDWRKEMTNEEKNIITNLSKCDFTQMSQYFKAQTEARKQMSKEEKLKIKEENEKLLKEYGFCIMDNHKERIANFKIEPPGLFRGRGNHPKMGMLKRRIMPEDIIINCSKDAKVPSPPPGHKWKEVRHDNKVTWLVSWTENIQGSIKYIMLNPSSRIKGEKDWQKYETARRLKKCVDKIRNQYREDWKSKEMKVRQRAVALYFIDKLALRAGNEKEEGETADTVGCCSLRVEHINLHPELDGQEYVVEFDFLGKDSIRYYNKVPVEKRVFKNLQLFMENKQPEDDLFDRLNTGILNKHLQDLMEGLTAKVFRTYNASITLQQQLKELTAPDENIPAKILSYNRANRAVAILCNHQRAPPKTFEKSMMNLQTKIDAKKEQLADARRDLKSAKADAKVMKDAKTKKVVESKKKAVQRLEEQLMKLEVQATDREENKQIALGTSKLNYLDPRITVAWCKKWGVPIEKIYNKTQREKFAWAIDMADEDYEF

MCF7 [16] = test: Induction of p53 consensus sequences deficient […]/WAF1 promoter activity in human MCF7 cells at 1 uM after 24 hrs by dual luciferase reporter gene assay; format: cell-based
[17] = Induction of apoptosis in human MCF10A cells assessed as DNA fragmentation at 1 uM after 48 hrs by DNA laddering assay; format: cell-based; conditions: mcf-10a
MCF7 [18] = test: Induction of p53 consensus sequences deficient […]/WAF1 promoter activity in human MCF7 cells at 0.1 uM after 24 hrs by dual luciferase reporter gene assay; format: cell-based
MCF7 [19] = test: Cytotoxicity against human MCF7 cells assessed as growth inhibition at 1 uM after 5 days by MTT assay relative to vehicle-treated control; format: functional; conditions: MCF7, 120 h, read-out: GI
[20] = Upregulation of p53 expression in human MCF-7 TR1 cells at 1 uM after 48 hrs by Western blot analysis; format: functional, cell-based
MDA-MB-231 [21] = test: Induction of apoptosis in human MDA-MB-231 cells assessed as DNA fragmentation at 1 uM after 48 hrs by DNA laddering assay; format: functional, cell-based
MDA-MB-231 [22] = test: Cytotoxicity against human MDA-MB-231 cells assessed as growth inhibition at 1 uM after 5 days by MTT assay relative to vehicle-treated control; format: functional
[23] = Cytotoxicity against human MCF10A cells assessed as growth inhibition at 1 uM after 5 days by MTT assay relative to vehicle-treated control; format: cell-based; conditions: mcf-10a, 120 h
[24] = Cytotoxicity against human MCF-7 TR1 cells assessed as cell colony formation after 14 days by crystal violet staining-based assay; format: functional; conditions: MCF-7 TR1, 336 h
[25] = target: Cellular tumor antigen p53 (Homo sapiens) (UniProt P04637); test: Activation of p53 in human MCF7 cells assessed as upregulation of […]/WAF1 expression after 48 hrs by Western blot analysis; format: cell-based
MCF7 [26] = test: Cytotoxicity against human MCF7 cells assessed as reduction of colony formation at 1 uM after 14 days by MTT staining-based anchorage-independant soft agar assay; format: functional, cell-based
MDA-MB-231 [27] = test: Cytotoxicity against human MDA-MB-231 cells assessed as reduction of colony formation at 1 uM after 14 days by MTT staining-based anchorage-independant soft agar assay; format: functional, cell-based
[28] = target: T1, DNA topoisomerase 1 (Homo sapiens); test: Inhibition of recombinant human topoisomerase 1 assessed as relaxation of supercoiled pHOT1 at 10 uM after 30 mins by agarose gel electrophoresis
[29] = target: Cellular tumor antigen p53 (Homo sapiens) (UniProt P04637); test: Activation of p53 in human MCF7 cells assessed as upregulation of […]/WAF1 mRNA expression at 1 uM after 12 hrs by RT-PCR analysis; format: cell-based
MCF-7 TR1 [30] = test: Induction of apoptosis in human MCF-7 TR1 cells assessed as DNA fragmentation at 1 uM after 48 hrs by DNA laddering analysis; format: functional, cell-based
[31] = Upregulation of p53 expression in human MCF10A cells at 0.1 uM after 48 hrs by Western blot analysis; format: ADME, cell-based; conditions: mcf-10a
MCF7 [32] = test: Induction of apoptosis in human MCF7 cells assessed as DNA fragmentation at 1 uM after 48 hrs by DNA laddering assay; format: functional, cell-based
Ishikawa = test: Cytotoxicity against human Ishikawa cells assessed as growth inhibition by MTT assay; format: functional, cell-based
MCF7 [33] = test: Upregulation of p53 expression in human MCF7 cells after 48 hrs by Western blot analysis; format: functional, cell-based
[34] = target: Cellular tumor antigen p53 (Homo sapiens) (UniProt P04637); test: Activation of p53 in human MCF7 cells assessed as upregulation of […]/WAF1 gene expression at 1 uM after 24 hrs by dual luciferase reporter gene assay; format: cell-based
[35] = target: Cellular tumor antigen p53 (Homo sapiens) (UniProt P04637); test: Activation of p53 in human MCF7 cells assessed as upregulation of […]/WAF1 gene expression at 0.1 uM after 24 hrs by dual luciferase reporter gene assay; format: cell-based
MDA-MB-231 [36] = test: Upregulation of p53 expression in human MDA-MB-231 cells after 48 hrs by Western blot analysis; format: functional, cell-based
MCF-7 TR1 [37] = test: Cytotoxicity against human MCF-7 TR1 cells assessed as reduction of cell vitality at 0.1 to 1 uM after 3 to 5 days by MTT assay; format: functional, cell-based
[38] = target: DNA topoisomerase 2-alpha (Homo sapiens) (UniProt P11388); test: Inhibition of human topoisomerase 2 assessed as decatenation of kDNA after 30 mins by agarose gel electrophoresis
DNA topoisomerase 2-alpha (Homo sapiens), sequence (P11388 whole entry): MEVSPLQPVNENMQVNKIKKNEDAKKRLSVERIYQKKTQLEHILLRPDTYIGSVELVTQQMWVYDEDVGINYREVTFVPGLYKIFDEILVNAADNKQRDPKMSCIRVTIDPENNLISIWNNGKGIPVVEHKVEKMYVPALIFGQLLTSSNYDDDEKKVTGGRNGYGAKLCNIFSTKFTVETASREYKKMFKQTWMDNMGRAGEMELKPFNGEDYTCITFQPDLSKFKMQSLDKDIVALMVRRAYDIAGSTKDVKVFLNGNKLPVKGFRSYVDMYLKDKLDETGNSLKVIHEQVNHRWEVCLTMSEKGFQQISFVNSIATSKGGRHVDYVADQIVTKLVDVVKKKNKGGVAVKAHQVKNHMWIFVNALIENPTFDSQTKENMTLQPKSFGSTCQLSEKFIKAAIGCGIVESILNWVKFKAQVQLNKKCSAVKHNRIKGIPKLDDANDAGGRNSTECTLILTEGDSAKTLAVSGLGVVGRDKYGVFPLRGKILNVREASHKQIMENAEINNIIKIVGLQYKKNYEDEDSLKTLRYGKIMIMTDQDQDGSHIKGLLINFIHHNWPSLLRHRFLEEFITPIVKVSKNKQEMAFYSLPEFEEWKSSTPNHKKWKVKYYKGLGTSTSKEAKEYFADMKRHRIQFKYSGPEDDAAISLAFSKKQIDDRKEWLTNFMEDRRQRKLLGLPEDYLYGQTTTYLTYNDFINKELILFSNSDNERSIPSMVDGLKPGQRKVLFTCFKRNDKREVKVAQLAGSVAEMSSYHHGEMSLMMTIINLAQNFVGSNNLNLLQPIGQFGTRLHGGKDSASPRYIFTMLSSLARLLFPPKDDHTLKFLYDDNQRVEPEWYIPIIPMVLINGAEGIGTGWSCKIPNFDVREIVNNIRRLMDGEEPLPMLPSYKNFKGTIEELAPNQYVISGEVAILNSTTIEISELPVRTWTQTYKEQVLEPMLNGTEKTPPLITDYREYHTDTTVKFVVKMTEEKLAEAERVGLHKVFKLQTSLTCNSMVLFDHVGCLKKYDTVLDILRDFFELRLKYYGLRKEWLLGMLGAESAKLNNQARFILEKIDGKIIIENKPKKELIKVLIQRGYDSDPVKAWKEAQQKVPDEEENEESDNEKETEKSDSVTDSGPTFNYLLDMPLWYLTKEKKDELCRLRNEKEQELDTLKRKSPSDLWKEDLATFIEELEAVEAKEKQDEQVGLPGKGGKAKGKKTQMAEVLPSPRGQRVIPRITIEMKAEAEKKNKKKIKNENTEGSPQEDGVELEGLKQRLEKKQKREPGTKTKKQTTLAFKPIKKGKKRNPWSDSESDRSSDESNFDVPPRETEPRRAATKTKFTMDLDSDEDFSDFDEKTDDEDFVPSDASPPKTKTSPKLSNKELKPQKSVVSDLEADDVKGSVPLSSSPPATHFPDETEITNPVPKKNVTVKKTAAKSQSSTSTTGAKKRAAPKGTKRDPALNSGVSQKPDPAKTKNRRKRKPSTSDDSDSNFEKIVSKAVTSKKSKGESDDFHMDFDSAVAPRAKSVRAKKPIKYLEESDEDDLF

[39] = Upregulation of p53 expression in human MCF10A cells at 1 uM after 48 hrs by Western blot analysis; format: ADME, cell-based; conditions: mcf-10a
MCF7 [40] = test: Cytotoxicity against human MCF7 cells assessed as reduction of colony formation at 0.1 uM after 14 days by MTT staining-based anchorage-independant soft agar assay; format: functional, cell-based
[41] = Cytotoxicity against human MCF10A cells assessed as cell viability after 5 days by MTT assay; format: cell-based; conditions: MCF-10A, 120 h
MDA-MB-231 [42] = test: Induction of p53 consensus sequences deficient […]/WAF1 promoter activity in human MDA-MB-231 cells at 0.1 to 1 uM after 24 hrs by dual luciferase reporter gene assay; format: cell-based
[43] = target: Cellular tumor antigen p53 (Homo sapiens) (UniProt P04637); test: Activation of p53 in human MCF7 cells assessed as upregulation of […]/WAF1 gene expression at 0.1 to 1 uM after 24 hrs by dual luciferase reporter gene assay; format: cell-based
[44] = Cytotoxicity against rat R2C cells assessed as growth inhibition by MTT assay; format: functional, cell-based
MCF7 [45] = test: Cytotoxicity against human MCF7 cells assessed as cell viability after 5 days by MTT assay; format: functional, cell-based; conditions: MCF7, 120 h
[46] = target: Cellular tumor antigen p53 (Homo sapiens) (UniProt P04637); test: Activation of p53 in human MCF7 cells assessed as upregulation of […]/WAF1 mRNA expression at 0.1 uM after 12 hrs by RT-PCR analysis; format: cell-based
MCF-7 TR1 [47] = test: Induction of apoptosis in human MCF-7 TR1 cells assessed as PARP proteolysis at 1 uM after 48 hrs by Western blot analysis; format: functional, cell-based

Cellular tumor antigen p53 (Homo sapiens), sequence (P04637 whole entry, looked up, the tested form may be a part): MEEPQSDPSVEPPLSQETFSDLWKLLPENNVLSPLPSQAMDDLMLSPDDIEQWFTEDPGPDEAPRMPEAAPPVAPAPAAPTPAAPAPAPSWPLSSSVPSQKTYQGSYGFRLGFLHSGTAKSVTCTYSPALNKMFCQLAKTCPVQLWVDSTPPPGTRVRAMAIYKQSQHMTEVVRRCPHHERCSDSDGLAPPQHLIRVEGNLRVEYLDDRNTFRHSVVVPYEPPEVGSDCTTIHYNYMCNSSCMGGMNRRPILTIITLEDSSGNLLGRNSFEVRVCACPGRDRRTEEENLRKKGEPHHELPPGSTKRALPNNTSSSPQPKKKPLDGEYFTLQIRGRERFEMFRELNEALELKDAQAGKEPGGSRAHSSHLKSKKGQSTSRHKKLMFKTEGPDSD

CCCN(CCC)c1nc2c(O)cc3c4ccccc4oc3c2c(=O)[nH]1
650 nM: IC50 (MDA-MB-231 [2])
1000 nM: IC50 [24]
33000 nM: IC50 [41]
inactive: Activity (MCF7 [7]) | Activity (MCF7 [8]) | Activity (MDA-MB-231 [12]) | Activity [13] | inhibition [15] | Activity (MCF7 [16]) | Activity (MCF7 [18]) | inhibition [28] | Activity [43]
1200 nM: IC50 [44]
980 nM: IC50 (Ishikawa)
660 nM: IC50 (MCF7 [45])
Non-toxic: Activity [10] | Activity [17] | Activity [23] | Activity [31] | Activity [39]
700 nM: IC50 (HeLa)
58%: inhibition of growth at 1 µM (MCF7 [19])
60%: inhibition of growth at 1 µM (MDA-MB-231 [22]; MDA-MB-231, 120 h, read-out: GI)
active: Activity [1] | Activity [3] | Activity [4] | Activity (MCF-7 TR1 [5]) | Activity [6] Dose-dependent effect | Activity [9] | Activity [11] | Activity (MDA-MB-231 [14]) | Activity [20] | Activity (MDA-MB-231 [21]) | Activity [25] Dose-dependent effect | Activity (MCF7 [26]) | Activity (MDA-MB-231 [27]) | Activity [29] | Activity (MCF-7 TR1 [30]) | Activity (MCF7 [32]) | Activity (MCF7 [33]) Dose-dependent effect | Activity [34] | Activity [35] | Activity (MDA-MB-231 [36]) Dose-dependent effect | Activity (MCF-7 TR1 [37]) | inhibition [38] Dose-dependent effect | Activity (MCF7 [40]) | Activity (MDA-MB-231 [42]) | Activity [46] | Activity (MCF-7 TR1 [47])
890 nM: IC50 (HepG2)

CCCN(CCC)c1nc2c(OC)cc3c4ccccc4oc3c2c(=O)[nH]1
Non-toxic: Activity [23]
37%: inhibition of growth at 1 µM (MCF7 [19])
active: growth inhibition (GI) (MDA-MB-231 [22])
